Measured values as given in PMC9927457 (Microbiology Spectrum, 2023).
Values after ≈ are worked out from the molar mass of the structure shown.

Tests used:
HepG2 cells = experiment: HepG2 cytotoxicity; assay type: cell-based, human; conditions: 3 days exposure, CellTiter-Glo
Description: HepG2 cells were used to measure eukaryotic cytotoxicity. Viability of HepG2 was measured using CellTiter-Glo reagent (Promega) after 3 days of exposure to compounds. […] Staurosporine controls (maximum inhibition) and a staurosporine dose response were included on every plate.

CYP2D6 = CYP2D6 (Homo sapiens, UniProt P10635); experiment: biochemical
Sequence of CYP2D6 (P10635 whole entry): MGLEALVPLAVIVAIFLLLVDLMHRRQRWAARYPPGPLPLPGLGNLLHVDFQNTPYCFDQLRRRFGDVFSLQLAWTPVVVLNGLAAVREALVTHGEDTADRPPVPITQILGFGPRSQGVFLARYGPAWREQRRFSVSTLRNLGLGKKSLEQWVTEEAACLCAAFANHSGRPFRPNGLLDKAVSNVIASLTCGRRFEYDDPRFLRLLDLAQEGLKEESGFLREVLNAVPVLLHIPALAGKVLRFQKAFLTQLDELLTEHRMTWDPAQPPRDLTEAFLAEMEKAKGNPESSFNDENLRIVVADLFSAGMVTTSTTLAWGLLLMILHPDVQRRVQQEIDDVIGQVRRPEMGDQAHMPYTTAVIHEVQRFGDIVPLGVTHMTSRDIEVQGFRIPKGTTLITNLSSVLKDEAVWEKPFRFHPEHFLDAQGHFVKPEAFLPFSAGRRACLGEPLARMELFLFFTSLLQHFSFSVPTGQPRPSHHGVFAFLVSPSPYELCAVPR
Description: (§1) Table S4. Inhibition of cytochrome P450s.
(§2) Compounds were tested for inhibition of P450s using the enzyme substrate pairs and conditions noted. IC50s (µM) were calculated. Control P450 inhibitors were included for each isoform. […]
(§3) 1200 HPLC and a CTC PAL chilled autosampler, all controlled by MassHunter software (Agilent).
(§4) After separation on a C18 reverse phase HPLC column (Agilent Zorbax StableBond 3.5µm, 2.1 x 30 mm) using an acetonitrile -water gradient system, peaks were analyzed by mass spectrometry (MS) using ESI ionization in MRM mode.
(§5) Serial dilutions of a 10 mM stock solution were prepared in acetonitrile:DMSO (9:1). The final DMSO concentration was < 0.2%. Compounds were incubated with human liver microsomes in the presence of 2 mM NADPH in 100 mM potassium phosphate (pH 7.4) containing 5 mM magnesium chloride and a probe substrate, in a 200 µl assay final volume in duplicate. The probe substrate concentrations including bupropion (CYP2B6), amodiaquine (CYP2C8), tolbutamide (CYP2C9), mephenytoin (CYP2C19), dextromethorphan (CYP2D6) and midazolam/testosterone […]
(§6) After incubation at 37 °C, reactions were terminated by addition of methanol containing internal standard (propranolol) for analytical quantification. The quenched samples were kept on ice for 10 min and centrifuged at 4 °C for 10 min. The supernatant was removed and the probe substrate metabolite was analyzed by LC-MS/MS (Agilent Technologies Triple Quad LC/MS). A decrease in the formation of the metabolite compared to vehicle control

Caco-2 cells = experiment: Caco-2 permeability; conditions: for recovery: human, 10 μM
Description: (§7) Permeability was measured across Caco-2 cells cultured in a Millipore 96-well Caco-2 plate. For apical to basolateral (A→B) permeability, 10 μM compound was added to the apical (A) side and amount of permeation was determined on the basolateral (B) side; for basolateral to apical (B→A) permeability, the compound was added to the B side and the amount of permeation was determine on the A side. Time points were taken at 2 h.
(§8) Table S2. Permeability. Permeability was measured using Caco-2 cells after 1 and 2 hours incubation with compound. (A→B) is Apical to Basolateral; (B→A) is Basolateral to Apical. Data is expressed as permeability (10-6 cm s-1). dQ/dt is rate of permeation, C0 is initial concentration […]
(§9) Article Duration direction value replicate replicate mean recovery

in vitro = conditions: human; for Papp A→B at 2 h, 10 µM / Papp B→A at 2 h, 10 µM / efflux ratio at 2 h, 10 µM: Caco-2
Description: as §7, §8, §9

CYP3A4 = CYP3A4 (Homo sapiens, UniProt P08684); experiment: Cytochrome P450 inhibition; assay type: in vitro ADME; conditions: liver microsomes
Sequence of CYP3A4 (P08684 2-503): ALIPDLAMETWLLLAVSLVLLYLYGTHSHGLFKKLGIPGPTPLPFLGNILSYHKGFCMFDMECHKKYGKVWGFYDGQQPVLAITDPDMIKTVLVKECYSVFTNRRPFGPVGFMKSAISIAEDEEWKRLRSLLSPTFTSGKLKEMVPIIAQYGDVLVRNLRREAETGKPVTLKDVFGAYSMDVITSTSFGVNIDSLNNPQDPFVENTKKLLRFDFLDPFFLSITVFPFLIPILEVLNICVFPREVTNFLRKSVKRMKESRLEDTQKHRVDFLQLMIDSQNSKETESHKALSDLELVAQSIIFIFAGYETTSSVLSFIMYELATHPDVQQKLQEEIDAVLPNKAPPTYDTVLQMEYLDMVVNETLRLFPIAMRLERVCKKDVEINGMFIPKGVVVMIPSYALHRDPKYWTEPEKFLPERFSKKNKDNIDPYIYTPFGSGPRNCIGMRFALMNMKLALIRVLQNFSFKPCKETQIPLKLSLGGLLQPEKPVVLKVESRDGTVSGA
Description: as §1
(§10) Compounds were tested for inhibition of P450s using the enzyme substrate pairs and conditions noted. IC50s (µM) were calculated. Control P450 inhibitors were included for each isoform.
(§11) For each compound, the analytical method was developed as follows. Analyte signal was optimized for each compound by ESI positive or negative ionization mode. An MS2 scan or an SIM scan was used to optimize fragmenter voltage and a product ion analysis was used to identify the best fragment for analysis. The collision energy was optimized using a product ion or MRM scan. An ionization ranking was assigned indicating the compound’s ease of ionization. Samples […]
as §3, §4
(§12) (1 picture or pasted object on this page, not shown here)
as §5, §6

CYP2C9 = CYP2C9 (Homo sapiens, UniProt P11712); experiment: biochemical
Sequence of CYP2C9 (P11712 whole entry): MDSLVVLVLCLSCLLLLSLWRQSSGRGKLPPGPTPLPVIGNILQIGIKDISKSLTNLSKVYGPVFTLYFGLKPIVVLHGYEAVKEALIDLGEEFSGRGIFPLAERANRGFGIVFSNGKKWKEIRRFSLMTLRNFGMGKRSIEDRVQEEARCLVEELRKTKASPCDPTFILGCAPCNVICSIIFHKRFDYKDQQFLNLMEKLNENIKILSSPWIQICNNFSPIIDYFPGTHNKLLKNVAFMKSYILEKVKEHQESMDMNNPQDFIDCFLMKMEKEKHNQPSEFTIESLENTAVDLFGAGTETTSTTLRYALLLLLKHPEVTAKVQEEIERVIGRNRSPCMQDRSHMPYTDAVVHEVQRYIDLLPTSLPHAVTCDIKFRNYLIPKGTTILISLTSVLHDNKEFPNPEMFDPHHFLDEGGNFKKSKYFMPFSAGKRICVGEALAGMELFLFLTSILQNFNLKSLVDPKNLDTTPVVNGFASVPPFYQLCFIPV
Description: as §1, §2, §5, §6

[1] = target: SPase activity in M. tuberculosis H37Rv cell membrane fractions (Mycobacterium tuberculosis, UniProt P9WKA1); experiment: Inhibition of secretion (SPase activity) in membrane fractions; assay type: biochemical; conditions: fluorogenic peptide substrate 2 μM; 4 h, 37 °C
Sequence of SPase activity in M. tuberculosis H37Rv cell membrane fractions (P9WKA1 whole entry): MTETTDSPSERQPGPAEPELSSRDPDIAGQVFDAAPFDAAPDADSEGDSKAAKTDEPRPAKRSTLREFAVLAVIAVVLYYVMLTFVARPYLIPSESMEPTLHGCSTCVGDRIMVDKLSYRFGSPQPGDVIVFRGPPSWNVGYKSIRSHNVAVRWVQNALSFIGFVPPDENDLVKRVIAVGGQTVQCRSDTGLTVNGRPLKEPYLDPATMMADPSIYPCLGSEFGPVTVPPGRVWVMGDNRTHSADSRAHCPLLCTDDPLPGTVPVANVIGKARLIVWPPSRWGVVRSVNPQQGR

CYP2C8 = target: T1, CYP2C8 (Homo sapiens, UniProt P10632); experiment: biochemical
T1 sequence (P10632 1-490): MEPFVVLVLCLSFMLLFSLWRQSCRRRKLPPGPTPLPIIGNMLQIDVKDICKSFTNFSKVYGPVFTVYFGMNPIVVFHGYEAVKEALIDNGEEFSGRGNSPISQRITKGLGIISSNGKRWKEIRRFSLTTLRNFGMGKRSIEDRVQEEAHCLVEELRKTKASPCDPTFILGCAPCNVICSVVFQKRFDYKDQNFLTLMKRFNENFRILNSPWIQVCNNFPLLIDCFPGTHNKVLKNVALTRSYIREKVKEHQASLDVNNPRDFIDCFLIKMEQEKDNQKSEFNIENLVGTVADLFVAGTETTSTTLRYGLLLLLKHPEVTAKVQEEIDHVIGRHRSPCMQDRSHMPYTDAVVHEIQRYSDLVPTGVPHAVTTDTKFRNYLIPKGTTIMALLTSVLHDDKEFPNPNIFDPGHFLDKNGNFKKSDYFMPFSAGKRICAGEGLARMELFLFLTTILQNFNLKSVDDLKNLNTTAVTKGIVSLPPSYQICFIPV
Description: as §1, §10, §11, §3, §4, §12, §5, §6

CYP2C19 = CYP2C19 (Homo sapiens, UniProt P33261); experiment: biochemical
Sequence of CYP2C19 (P33261 whole entry): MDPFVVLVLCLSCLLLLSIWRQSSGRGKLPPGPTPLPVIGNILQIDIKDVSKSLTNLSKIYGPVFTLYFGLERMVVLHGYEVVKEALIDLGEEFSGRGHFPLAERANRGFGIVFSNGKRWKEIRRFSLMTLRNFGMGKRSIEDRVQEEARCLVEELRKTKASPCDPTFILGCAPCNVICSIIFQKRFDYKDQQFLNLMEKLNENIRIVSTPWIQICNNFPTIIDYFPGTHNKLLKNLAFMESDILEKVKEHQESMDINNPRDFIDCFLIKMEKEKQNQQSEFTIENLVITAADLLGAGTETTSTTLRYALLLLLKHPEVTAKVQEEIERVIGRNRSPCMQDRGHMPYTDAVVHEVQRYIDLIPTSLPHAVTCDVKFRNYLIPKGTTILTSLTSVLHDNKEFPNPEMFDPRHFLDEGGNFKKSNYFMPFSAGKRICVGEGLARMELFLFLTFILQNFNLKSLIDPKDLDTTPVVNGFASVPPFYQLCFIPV
Description: as §1, §10, §11, §3, §4, §12, §5, §6

[2] = system: M. tuberculosis wild-type strain; experiment: MIC against wild-type M. tuberculosis; assay type: cell-based, Mycobacterium tuberculosis; conditions: concentration required to inhibit growth by 90%, 5 days culture; for MIC: Mycobacterium tuberculosis, 120 h, read-out: MIC Wild type
CYP2B6 = target: T2, CYP2B6 (Homo sapiens, UniProt P20813); experiment: Cytochrome P450 inhibition
T2 sequence (P20813 1-491): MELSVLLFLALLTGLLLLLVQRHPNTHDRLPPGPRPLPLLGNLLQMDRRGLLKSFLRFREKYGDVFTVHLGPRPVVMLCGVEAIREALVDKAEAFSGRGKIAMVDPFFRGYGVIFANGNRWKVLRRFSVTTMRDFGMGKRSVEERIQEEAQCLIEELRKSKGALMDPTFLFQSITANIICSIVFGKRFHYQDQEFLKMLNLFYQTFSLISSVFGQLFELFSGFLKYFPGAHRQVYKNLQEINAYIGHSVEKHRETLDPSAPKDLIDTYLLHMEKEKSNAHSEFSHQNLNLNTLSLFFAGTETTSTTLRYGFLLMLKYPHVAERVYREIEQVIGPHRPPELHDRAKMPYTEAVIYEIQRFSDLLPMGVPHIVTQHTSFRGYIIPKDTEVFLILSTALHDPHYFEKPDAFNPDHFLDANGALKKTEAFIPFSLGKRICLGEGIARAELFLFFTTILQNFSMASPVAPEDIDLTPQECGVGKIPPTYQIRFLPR
Description: as §1, §10, §11, §3, §4, §12, §5, §6

[3] = Microsomal metabolic stability; conditions: human, pH 7.4; for half-life at 1 µM: liver microsomes; for microsomal CLint at 1 µM: microsomes
Description: as §7
Table S3. Metabolic stability. Metabolic stability was measured using human liver microsomes. […]

[4] = system: M. tuberculosis strain under expressing LepB (LepB-UE); experiment: microbe, parasite or virus in culture; assay type: cell-based, Mycobacterium tuberculosis; conditions: for MIC: Mycobacterium tuberculosis, 120 h
[5] = Plasma protein binding (Rapid Equilibrium Dialysis); assay type: in vitro ADME, human; conditions: human; for fraction unbound at 4 h, 5 µM: plasma
Description: Molecule fraction fraction Post-Assay
Table S5. Plasma protein binding
Protein binding was measured in human plasma using Rapid Equilibrium Dialysis (RED) devices (Pierce) according to the manufacturers’ instructions; 5 µM compounds in plasma were dialysed against PBS for 4 h at 37C. Compounds were detected by LC-MS/MS in plasma and PBS

RAW 264.7 macrophages = experiment: Cytotoxicity against infected macrophages; assay type: cell-based, murine; conditions: Mus musculus; infected RAW264:7 cells, 72 h; read-out: IC50 Macrophage
Description: (§13) Murine RAW 264.7 macrophages (ATCC TIB-71) were infected with M. tuberculosis DsRed (DREAM8) ([29]) as described at a multiplicity of infection of 1 for 24 h, washed, harvested, and dispensed into 384-well plates ([30]). Infected macrophages were exposed to compounds for 72 h; cell nuclei were stained with SYBR green I. Plates were imaged with an ImageXpress Micro High Content Screening System (Molecular Devices) using a ×4 objective and FITC and Texas Red channels. MetaXpress was used to determine the integrated intensity of bacteria or macrophages. […] Isoniazid and staurosporine controls (maximum inhibition) and dose responses were included on every plate.

[6] = system: replicating M. tuberculosis; experiment: Kill kinetics, replicating bacteria; conditions: aerobic growth
[7] = system: nonreplicating M. tuberculosis; experiment: Kill kinetics, nonreplicating (nutrient starved) bacteria; assay type: cell-based, Mycobacterium tuberculosis; conditions: nutrient starvation, PBS-tyloxapol
[8] = system: intracellular M. tuberculosis (MTB) in RAW 264.7 macrophages; experiment: Activity against intracellular M. tuberculosis in macrophages (high-content microscopy); assay type: cell-based; conditions: Mycobacterium tuberculosis, RAW264.7, 72 h, intracellular M. tuberculosis in RAW 264.7 macrophages
Description: as §13

[9] = Mean plasma fraction Unbound Fuplasma

Row | SMILES | IC50 (HepG2 cells; Homo sapiens, HepG2, 72 h) [µM] | IC50 (CYP2D6) [µM] | dQ/dt (rate of permeation), mean (Caco-2 cells; A→B, assay duration 1 hr) | dQ/dt (rate of permeation), mean (Caco-2 cells; A→B, assay duration 2 hr) | dQ/dt (rate of permeation), mean (Caco-2 cells; B→A, assay duration 1 hr) | dQ/dt (rate of permeation), mean (Caco-2 cells; B→A, assay duration 2 hr) | Papp A→B at 2 h, 10 µM (in vitro) [×10⁻⁶ cm/s] | Papp B→A at 2 h, 10 µM (in vitro) [×10⁻⁶ cm/s] | efflux ratio at 2 h, 10 µM (in vitro) | IC50 at 10 min (CYP3A4; pH 7.4, probe midazolam) [µM] | IC50 at 10 min (CYP3A4; pH 7.4, probe testosterone) [µM] | IC50 (CYP2C9) [µM] | IC50 (CYP2C8) [µM] | IC50 (CYP2C19) [µM] | MIC [2] [µM] | MIC Wild type [2] [µM] | IC50 (CYP2B6) [µM] | half-life at 1 µM [3] [min] | MIC LepB-UE [4] [µM] | MIC [4] [µM] | further results
1 | CCCCNC(=S)Nc1nc2ccccc2o1 [Molecule 12, 1-(benzo[d]oxazol-2-yl)-3-butylthiourea] | 21 ± 19 | > 20 | 3.4E-05 | 3.2E-05 | 2.7E-05 | 3.0E-05 | 4.9 | 5.8 | 1.2 | > 20 | > 20 | > 20 | > 20 | 12.7 | 23 to 32 (≈ 5.73 to 7.98 µg/mL) | 23 ± 9.0 (≈ 5.73 µg/mL) | > 20 | 11 | 32 ± 11 (≈ 7.98 µg/mL) | 23 to 32 (≈ 5.73 to 7.98 µg/mL) | IC50 [1]: > 200 µM; microsomal CLint at 1 µM [3]: 218 µL/min/mg; recovery at 4 h, 5 µM [5]: 80.1%; fraction unbound at 4 h, 5 µM ([5]; Mean plasma fraction Bound): 0.002; fraction unbound at 4 h, 5 µM [5, 9]: 0.002
2 | CCCCNC(=S)Nc1nccs1 [Molecule 14, 1-butyl-3-(thiazol-2-yl)thiourea] | 75 ± 26 | > 20 | 2.6E-04 | 1.5E-04 | 2.3E-04 | 1.6E-04 | 22 | 18 | 0.81 | > 20 | > 20 | 13.2 | > 20 | 13.5 | 34 (≈ 7.32 µg/mL) | 34 ± 3.0 (≈ 7.32 µg/mL) | > 20 | 26 | 41 ± 0.1 (≈ 8.83 µg/mL) | 41 (≈ 8.83 µg/mL) | recovery (Caco-2 cells; Caco-2, 1 h): 72%; recovery (Caco-2 cells; Caco-2, 2 h): 65%; recovery at 1 h, 10 μM (in vitro; Caco-2, recovery): 57%; recovery at 2 h, 10 μM (in vitro; Caco-2, recovery): 59%; IC50 [1]: > 200 µM; microsomal CLint at 1 µM [3]: 89 µL/min/mg; recovery at 4 h, 5 µM [5]: 83.8%; fraction unbound at 4 h, 5 µM ([5]; Mean plasma fraction Bound): 0.01; fraction unbound at 4 h, 5 µM [5, 9]: 0.0098
3 | COCCCNC(=S)Nc1nc2ccccc2s1 [Molecule 24, 1-(benzo[d]thiazol-2-yl)-3-(3-methoxypropyl)thiourea] | 65 ± 60 | > 20 | 1.1E-04 | 8.8E-05 | 8.0E-05 | 1.1E-04 | 17 | 15 | 0.87 | > 20 | > 20 | > 20 | > 20 | > 20 | 65 ± 21 (≈ 18.3 µg/mL) |  | > 20 | 8.2 |  | 58 ± 1 (≈ 16.3 µg/mL) | recovery at 2 h, 10 μM (in vitro; Caco-2, recovery): 54%; microsomal CLint at 1 µM [3]: 282 µL/min/mg; recovery at 4 h, 5 µM [5]: 76.5%; fraction unbound at 4 h, 5 µM ([5]; Mean plasma fraction Bound): 0.055; fraction unbound at 4 h, 5 µM [5, 9]: 0.055
4 | Cc1coc(NC(=S)NCC(C)C)n1 [Molecule 29, 1-isobutyl-3-(4-methyloxazol-2-yl)thiourea] | 27 to 78 |  |  |  |  |  |  |  |  |  |  |  |  |  | 20 to 40 (≈ 4.27 to 8.53 µg/mL) | 20 ± 23 (≈ 4.27 µg/mL) |  |  | 12 ± 1.0 (≈ 2.56 µg/mL) | 12 to 21 (≈ 2.56 to 4.48 µg/mL) | IC50 (HepG2 cells): 27 ± 6 µM; IC50 (RAW 264.7 macrophages): 8.1 ± 1.6 µM; concentration with bactericidal activity (defined as 3 log kill) [6]: 27.5 μM; concentration giving sterilization of nonreplicating organisms [7]: 100 µM
5 | CCCNC(=S)Nc1nc2c(Cl)cccc2s1 [Molecule 31, 1-(4-chlorobenzo[d]thiazol-2-yl)-3-propyl thiourea] | > 100 |  |  |  |  |  |  |  |  |  |  |  |  |  | > 100 |  |  |  | 14 ± 2.0 (≈ 4 µg/mL) | 14 (≈ 4 µg/mL) | IC50 (RAW 264.7 macrophages): > 100 µM; IC50 [8]: 11 ± 2.2 µM
